Measured values published in BindingDB's records for doi:10.1021/jm00072a017 (Farmitalia Carlo Erba, 1993).
pIC50: −log10 of the molar value.

Target: T1, Thromboxane-A synthase (Rattus norvegicus, UniProt P49430)
T1 sequence (P49430 whole entry): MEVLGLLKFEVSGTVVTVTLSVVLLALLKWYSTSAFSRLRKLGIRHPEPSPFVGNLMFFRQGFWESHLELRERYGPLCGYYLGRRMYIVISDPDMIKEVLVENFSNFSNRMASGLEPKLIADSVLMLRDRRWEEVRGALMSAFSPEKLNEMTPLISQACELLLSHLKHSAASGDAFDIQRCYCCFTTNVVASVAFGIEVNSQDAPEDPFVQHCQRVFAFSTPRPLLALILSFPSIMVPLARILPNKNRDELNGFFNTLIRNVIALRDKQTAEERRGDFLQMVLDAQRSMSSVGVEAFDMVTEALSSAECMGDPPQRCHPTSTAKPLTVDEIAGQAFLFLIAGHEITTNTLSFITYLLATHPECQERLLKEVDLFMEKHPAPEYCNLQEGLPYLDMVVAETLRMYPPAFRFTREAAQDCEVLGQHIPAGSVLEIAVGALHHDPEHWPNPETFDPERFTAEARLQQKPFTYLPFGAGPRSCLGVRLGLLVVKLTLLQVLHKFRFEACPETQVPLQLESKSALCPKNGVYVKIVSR
Test: ChEBML_213089
Text: In vitro inhibition of thromboxane B2 production in rat whole blood.

SMILES	pIC50
CCOC(=O)C1=C(CC)N=C(CC)C(C(=O)OCC)C1c1cccc(-n2ccnc2)c1 (stereo unspecified) [2,6-Diethyl-4-(3-imidazol-1-yl-phenyl)-1,4-dihydro-pyridine-3,5-dicarboxylic acid diethyl ester]	< 6.00
CCOC(=O)C1C(C)=NC(C)=C(C(=O)OCCN(C)Cc2ccccc2)C1c1cccc(-c2cccnc2)c1 (stereo unspecified) [2,6-Dimethyl-4-(3-pyridin-3-yl-phenyl)-1,4-dihydro-pyridine-3,5-dicarboxylic acid 3-[2-(benzyl-methyl-amino)-ethyl] ester 5-ethyl ester]	< 6.00
CC1=NC(C)=C(C(=O)OCC(C)C)C(c2cccc(-c3cccnc3)c2)C1C(=O)OCC(C)C (stereo unspecified) [2,6-Dimethyl-4-(3-pyridin-3-yl-phenyl)-1,4-dihydro-pyridine-3,5-dicarboxylic acid diisobutyl ester]	< 6.00
CCOC(=O)C1=C(C)N=C(C)C(C(=O)OCC)C1c1ccccc1-n1ccnc1 (stereo unspecified) [4-(2-Imidazol-1-yl-phenyl)-2,6-dimethyl-1,4-dihydro-pyridine-3,5-dicarboxylic acid diethyl ester]	< 6.00
CCOC(=O)C1=C(C)N=C(C)C(C(=O)O)C1c1cccc(-n2ccnc2)c1 (stereo unspecified) [4-(3-Imidazol-1-yl-phenyl)-2,6-dimethyl-1,4-dihydro-pyridine-3,5-dicarboxylic acid monoethyl ester]	< 6.00
CCOC(=O)C1=C(C)N=C(C)C(C(=O)OCC)C1c1ccc(-n2ccnc2)cc1 (stereo unspecified) [4-(4-Imidazol-1-yl-phenyl)-2,6-dimethyl-1,4-dihydro-pyridine-3,5-dicarboxylic acid diethyl ester]	< 6.00
